Results published in patent US7846697B2, “Method of producing a low molecular weight organic compound in a cell” (BLMaps, priority 2003, dated 2010).

Test system: E. coli strain KO1418 transformants
Test: Toxicity of vanillin with IPTG-induced expression of UGT85B1 or AS, growth on plates; further: key: −: No growth; +: weak growth; ++: good growth
Assay type: cell-based
Experimental: The E. coli strains TOP10, JM109, and KO1418 were all transformed with the constructed plasmids pJH401, pJH402, pJH411 and pJH412, and pKK223-3 as control, employing standard transformation protocols. Transformants were selected for ampicilin resistance, and two transformants of each E. coli strain with each plasmid were kept for expression experiments. The E. coli transformants were inoculated from plate cultures into 2 ml liquid growth medium (LB medium containing ampicilin at 100 μg/ml), and allowed to grow for 20 hours at 37° C. The precultures were diluted 100 times 10^4 times and 10^6 times in growth medium, and 4 μl droplets of these cell suspensions were applied to the surface of Petri dishes containing solid LB-ampicilin medium containing varying concentrations of vanillin (based on the STV determinations described above), and without or with (to induce gene expression) 1 mM isopropyl thiogalactoside (IPTG). The plates were incubated at 37° C. for 24 hours, after which growth on the various concentrations of vanillin was monitored and recorded.

SMILES: COc1cc(C=O)ccc1O [Vanillin, vanillin]
- growth (KO1418 [pJH401], 0.08% vanillin, IPTG induction No): ++
- growth (KO1418 [pJH401], 0.08% vanillin, IPTG induction Yes): ++
- growth (KO1418 [pJH401], 0.12% vanillin, IPTG induction No): ++
- growth (KO1418 [pJH401], 0.12% vanillin, IPTG induction Yes): ++
- growth (KO1418 [pJH401], 0.16% vanillin, IPTG induction No): −
- growth (KO1418 [pJH401], 0.16% vanillin, IPTG induction Yes): ++
- growth (KO1418 [pJH401], 0.2% vanillin, IPTG induction No): −
- growth (KO1418 [pJH401], 0.2% vanillin, IPTG induction Yes): −
- growth (KO1418 [pJH402], 0.08% vanillin, IPTG induction No): ++
- growth (KO1418 [pJH402], 0.08% vanillin, IPTG induction Yes): ++
- growth (KO1418 [pJH402], 0.12% vanillin, IPTG induction No): ++
- growth (KO1418 [pJH402], 0.12% vanillin, IPTG induction Yes): ++
- growth (KO1418 [pJH402], 0.16% vanillin, IPTG induction No): +
- growth (KO1418 [pJH402], 0.16% vanillin, IPTG induction Yes): ++
- growth (KO1418 [pJH402], 0.2% vanillin, IPTG induction No): −
- growth (KO1418 [pJH402], 0.2% vanillin, IPTG induction Yes): −
- growth (KO1418 [pJH410], 0.08% vanillin, IPTG induction No): ++
- growth (KO1418 [pJH410], 0.12% vanillin, IPTG induction Yes): ++
- growth (KO1418 [pJH410], 0.16% vanillin, IPTG induction No): ++
- growth (KO1418 [pJH410], 0.16% vanillin, IPTG induction Yes): ++
- growth (KO1418 [pJH410], 0.2% vanillin, IPTG induction No): −
- growth (KO1418 [pKK223-3], 0.08% vanillin, IPTG induction No): ++
- growth (KO1418 [pKK223-3], 0.08% vanillin, IPTG induction Yes): ++
- growth (KO1418 [pKK223-3], 0.12% vanillin, IPTG induction No): ++
- growth (KO1418 [pKK223-3], 0.12% vanillin, IPTG induction Yes): ++
- growth (KO1418 [pKK223-3], 0.16% vanillin, IPTG induction No): −
- growth (KO1418 [pKK223-3], 0.16% vanillin, IPTG induction Yes): ++
- growth (KO1418 [pKK223-3], 0.2% vanillin, IPTG induction No): −
- growth (KO1418 [pKK223-3], 0.2% vanillin, IPTG induction Yes): −
